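Grown in 96-well plates, cells were treated for 48 hours with each compound at five concentrations. Insufficient inhibition: endpoint recorded as highest concentration tested. GI50: concentration for 50% inhibition of growth.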 Active and inactive are the calls of the source. Rule as the data show it: active = GI50 up to about 1.1 µM and inactive = higher.
Key:
Assay in all cases: NCI-60 cell line screen, 48 h
T47D = tested on: T47D
CAKI-1 = tested on: CAKI-1
DU-145 = tested on: DU-145
KM12 = tested on: KM12
EKVX = tested on: EKVX
Malme-3M = tested on: Malme-3M
COLO 205 = tested on: COLO 205
786-0 = tested on: 786-0
MDA-MB-231 = tested on: MDA-MB-231
Hs-578T = tested on: Hs-578T
SF-268 = tested on: SF-268
OVCAR-4 = tested on: OVCAR-4
HOP-92 = tested on: HOP-92
HL-60 = tested on: HL-60
U-251 = tested on: U-251
SK-MEL-2 = tested on: SK-MEL-2
SNB-75 = tested on: SNB-75
OVCAR-5 = tested on: OVCAR-5
CCRF-CEM = tested on: CCRF-CEM
HCC 2998 = tested on: HCC 2998

SMILES	GI50 (T47D)	GI50 (CAKI-1)	GI50 (DU-145)	GI50 (KM12)	GI50 (EKVX)	GI50 (Malme-3M)	GI50 (COLO 205)	GI50 (786-0)	GI50 (MDA-MB-231)	GI50 (Hs-578T)	GI50 (SF-268)	GI50 (OVCAR-4)	GI50 (HOP-92)	GI50 (HL-60)	GI50 (U-251)	GI50 (SK-MEL-2)	GI50 (SNB-75)	GI50 (OVCAR-5)	GI50 (CCRF-CEM)	GI50 (HCC 2998)
COc1ccc(C2=C(Cl)C(=O)N(c3ccc(OC)cc3OC)C(=O)C2(Cl)Cl)cc1	11.8 µM (inactive)	11.9 µM (inactive)	17.3 µM (inactive)	17.1 µM (inactive)	32.8 µM (inactive)	14.6 µM (inactive)	17.9 µM (inactive)	15.6 µM (inactive)	7.62 µM (inactive)	< 0.01 µM (active)	18.1 µM (inactive)	14.5 µM (inactive)	9.77 µM (inactive)	25.2 µM (inactive)	16.6 µM (inactive)	20.9 µM (inactive)	22.9 µM (inactive)	14.4 µM (inactive)		
COc1ccc(C[C@@H](CO)NC2=C(C#N)CCC2)cc1		43 µM (inactive)	50.6 µM (inactive)	19.5 µM (inactive)	35.7 µM (inactive)	34.7 µM (inactive)	43.7 µM (inactive)	64.1 µM (inactive)	15.1 µM (inactive)	20 µM (inactive)	58.9 µM (inactive)	32.1 µM (inactive)	43.5 µM (inactive)	11 µM (inactive)	> 100 µM (inactive)	> 100 µM (inactive)	22.2 µM (inactive)	71.6 µM (inactive)	42.6 µM (inactive)	19.6 µM (inactive)
COC(CN(C)C(=O)C(C)NC(=O)c1ccccc1)OC (configuration not stated)	> 100 µM (inactive)	> 100 µM (inactive)	> 100 µM (inactive)	> 100 µM (inactive)	> 100 µM (inactive)	> 100 µM (inactive)	> 100 µM (inactive)	> 100 µM (inactive)	> 100 µM (inactive)	> 100 µM (inactive)	> 100 µM (inactive)	> 100 µM (inactive)	> 100 µM (inactive)		> 100 µM (inactive)	> 100 µM (inactive)	> 100 µM (inactive)	> 100 µM (inactive)	> 100 µM (inactive)	
CCOc1cc(C2CC(c3ccc(NS(=O)(=O)c4cc([N+](=O)[O-])ccc4C)cc3)=NN2C(=O)c2ccccc2)ccc1O (configuration not stated)	12.1 µM (inactive)	24.7 µM (inactive)	32.7 µM (inactive)	30.3 µM (inactive)	18.7 µM (inactive)	13.8 µM (inactive)	16.4 µM (inactive)	23.1 µM (inactive)	17.5 µM (inactive)	16.8 µM (inactive)	15.7 µM (inactive)	24.6 µM (inactive)	14.8 µM (inactive)	17.2 µM (inactive)	18.7 µM (inactive)	13.7 µM (inactive)	14.1 µM (inactive)	36.6 µM (inactive)	20.7 µM (inactive)	
OC(c1ccccc1)c1c(-c2ccccc2)oc(-c2ccccc2)c1C(O)c1ccccc1 (configuration not stated)	6.28 µM (inactive)	15.2 µM (inactive)	13.7 µM (inactive)	7.24 µM (inactive)	5.75 µM (inactive)	12.3 µM (inactive)	5.87 µM (inactive)	9.06 µM (inactive)		13.5 µM (inactive)	12 µM (inactive)	< 0.01 µM (active)	13.4 µM (inactive)	3.26 µM (inactive)	14 µM (inactive)	14.2 µM (inactive)		15.6 µM (inactive)	3.73 µM (inactive)	16.8 µM (inactive)

Reference: ChEMBL document CHEMBL1201862, “PubChem BioAssay data set” (2004)
